target: C-Raf FL (full length CRAF with Y340E and Y341E activating mutations, co-expressed with h14-3-3 zeta) (Homo sapiens (Human), UniProt P04049, Y340E/Y341E); assay: In vitro Raf activity determination, AlphaScreen p-MEK readout, c-Raf (C-Raf FL); format: biochemical; conditions: c-Raf approximately 4 nM, ATP 1 μM, pre-incubation 60 minutes, reaction 1 hour
Summary of the method: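 Full-length C-Raf (~4 nM) pre-incubated 60 min at room temperature with compound and kinase-dead biotinylated MEK1 (~10 nM) in Tris pH 7.5, 15 mM MgCl2, BSA, DTT. Reaction started with 1 μM ATP and run 1 h at room temperature. Phospho-MEK detected by AlphaScreen with anti-p-MEK antibody.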

Sequence of C-Raf FL (full length CRAF with Y340E and Y341E activating mutations, co-expressed with h14-3-3 zeta) (P04049 whole entry Y340E/Y341E): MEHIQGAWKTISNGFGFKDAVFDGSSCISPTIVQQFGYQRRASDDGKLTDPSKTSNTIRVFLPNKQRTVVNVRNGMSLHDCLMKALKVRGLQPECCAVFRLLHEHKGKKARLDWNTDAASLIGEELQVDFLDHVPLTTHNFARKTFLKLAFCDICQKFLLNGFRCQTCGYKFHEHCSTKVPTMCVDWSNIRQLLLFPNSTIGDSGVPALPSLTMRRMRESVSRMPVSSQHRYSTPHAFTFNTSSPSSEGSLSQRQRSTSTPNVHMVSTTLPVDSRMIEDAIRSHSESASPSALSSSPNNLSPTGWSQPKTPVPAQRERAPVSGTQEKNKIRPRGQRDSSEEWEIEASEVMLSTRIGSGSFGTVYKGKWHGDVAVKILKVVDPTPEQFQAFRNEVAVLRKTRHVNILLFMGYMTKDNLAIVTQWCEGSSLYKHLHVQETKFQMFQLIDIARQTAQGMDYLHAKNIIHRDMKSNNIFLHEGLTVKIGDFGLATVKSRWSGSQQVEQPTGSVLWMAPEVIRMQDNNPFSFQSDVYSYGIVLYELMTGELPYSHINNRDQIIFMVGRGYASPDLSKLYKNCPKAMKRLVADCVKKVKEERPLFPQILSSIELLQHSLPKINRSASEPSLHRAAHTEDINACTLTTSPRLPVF
Sequence of C-Raf FL (full length CRAF with Y340E and Y341E activating mutations, co-expressed with h14-3-3 zeta) (P63104 whole entry partner): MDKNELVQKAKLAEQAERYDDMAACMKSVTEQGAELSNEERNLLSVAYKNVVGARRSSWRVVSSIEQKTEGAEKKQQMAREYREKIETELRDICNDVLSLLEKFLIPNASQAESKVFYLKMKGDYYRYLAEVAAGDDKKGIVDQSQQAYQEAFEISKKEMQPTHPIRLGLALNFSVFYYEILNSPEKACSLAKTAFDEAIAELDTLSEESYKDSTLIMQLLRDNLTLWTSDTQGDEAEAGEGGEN

**Q.** With `Cc1ccc(NC(=O)c2ccnc(C(F)(F)F)c2)cc1-c1ccc2c(c1)N1CCOC[C@H]1[C@](F)(CF)C2` [Example 472, N-(3-((4aS,5S)-5-fluoro-5-(fluoromethyl)-1,2,4,4a,5,6-hexahydro-[1,4]oxazino[4,3-a]quinolin-9-yl)-4-methylphenyl)-2-(trifluoromethyl)iso-nicotinamide] as the compound, how does the IC50 read?
**A.** Its IC50 is 2 nM.

**Q.** With `Cc1ccc(NC(=O)c2ccnc(C(C)(F)F)c2)cc1-c1ccc2c(c1)N1CCOC[C@H]1[C@](F)(CF)C2` [Example 473] as the compound, how does the IC50 read?
**A.** The IC50 was 1.5 nM.

**Q.** How did the IC50 turn out when `Cc1ccc(NC(=O)c2ccnc(C(C)(C)C)c2)cc1-c1ccc2c(c1)N1CCOC[C@H]1[C@](F)(CF)C2` [Example 474, 2-(tert-butyl)-N-(3-((4aS,5S)-5-fluoro-5-(fluoromethyl)-1,2,4,4a,5,6-hexahydro-[1,4]oxazino[4,3-a]quinolin-9-yl)-4-methylphenyl)iso-nicotinamide] was run?
**A.** Its IC50 is 5.5 nM.

**Q.** `Cc1ccc(NC(=O)c2cnnc(C(F)(F)F)c2)cc1-c1ccc2c(c1)N1CCOC[C@H]1[C@](F)(CF)C2` [Example 475, N-(3-((4aS,5S)-5-fluoro-5-(fluoromethyl)-1,2,4,4a,5,6-hexahydro-[1,4]oxazino[4,3-a]quinolin-9-yl)-4-methylphenyl)-6-(trifluorometh-yl)pyridazine-4-carboxamide] was tested. Which IC50 did it give?
**A.** The IC50 was 0.4 nM.

**Q.** `Cc1ccc(NC(=O)c2ccnc(C(C)(F)F)c2)cc1-c1cc2c(cc1F)C[C@](F)(CO)[C@H]1COCCN21` [Example 476, N-(3-((4aR,5R)-5,8-difluoro-5-(hydroxymethyl)-1,2,4,4a,5,6-hexahydro-[1,4]oxazino[4,3-a]quinolin-9-yl)-4-methylphenyl)-2-(1,1-difluoroethyl)iso-nicotinamide] was tested. Which IC50 did it give?
**A.** The IC50 was 0.2 nM.

**Q.** Which IC50 does the source give for `Cc1ccc(NC(=O)c2cnnc(C(F)(F)F)c2)cc1-c1cc2c(cc1F)C[C@](F)(CO)[C@H]1COCCN21` [Example 477, N-(3-((4aR,5R)-5,8-difluoro-5-(hydroxymethyl)-1,2,4,4a,5,6-hexahydro-[1,4]oxazino[4,3-a]quinolin-9-yl)-4-methylphenyl)-6-(trifluoromethyl) pyridazine-4-carboxamide] here?
**A.** The IC50 was 0.1 nM.

**Q.** How did the IC50 turn out when `Cc1ccc(NC(=O)c2ccnc(C(C)(C)F)c2)cc1-c1cc2c(cc1F)C[C@](F)(CO)[C@H]1COCCN21` [Example 478, N-(3-((4aR,5R)-5,8-difluoro-5-(hydroxymethyl)-1,2,4,4a,5,6-hexahydro-[1,4]oxazino[4,3-a]quinolin-9-yl)-4-methylphenyl)-2-(2-fluoropropan-2-yl)isonicotinamide] was run?
**A.** Its IC50 is 0.2 nM.

**Q.** For `Cc1ncc(NC(=O)c2cccc(C(F)(F)F)c2)cc1-c1cc2c(cc1F)C[C@](F)(CO)[C@H]1COCCN21` [Example 479, N-(5-((4aR,5R)-5,8-difluoro-5-(hydroxymethyl)-1,2,4,4a,5,6-hexahydro-[1,4]oxazino[4,3-a]quinolin-9-yl)-6-methylpyridin-3-yl)-3-(trifluoromethyl) benzamide], which IC50 is on record?
**A.** The IC50 was 0.4 nM.

**Q.** How did the IC50 turn out when `Cc1ccc(NC(=O)c2ccnc(C(F)(F)F)c2)cc1-c1cc2c(cc1F)C[C@](F)(CO)[C@H]1COCCN21` [Example 480, N-(3-((4aR,5R)-5,8-difluoro-5-(hydroxymethyl)-1,2,4,4a,5,6-hexahydro-[1,4]oxazino[4,3-a]quinolin-9-yl)-4-methylphenyl)-2-(trifluoromethyl) isonicotinamide] was run?
**A.** Its IC50 is 0.2 nM.

**Q.** `Cc1ccc(NC(=O)c2ccnc(C(C)(F)F)c2)cc1-c1cc2c(cc1F)C[C@@](F)(CO)[C@@H]1COCCN21` [Example 481, N-(3-((4aS,5S)-5,8-difluoro-5-(hydroxymethyl)-1,2,4,4a,5,6-hexahydro-[1,4]oxazino[4,3-a]quinolin-9-yl)-4-methylphenyl)-2-(1,1-difluoroethyl)iso-nicotinamide] was tested. Which IC50 did it give?
**A.** Its IC50 is 1.1 nM.

**Q.** How did the IC50 turn out when `Cc1ccc(NC(=O)c2cnnc(C(F)(F)F)c2)cc1-c1cc2c(cc1F)C[C@@](F)(CO)[C@@H]1COCCN21` [Example 482, N-(3-((4aS,5S)-5,8-difluoro-5-(hydroxymethyl)-1,2,4,4a,5,6-hexahydro-[1,4]oxazino[4,3-a]quinolin-9-yl)-4-methylphenyl)-6-(trifluoromethyl) pyridazine-4-carboxamide] was run?
**A.** The IC50 was 0.3 nM.

Source: patent publication US10377770B2 (Novartis AG, priority 2015, dated 2019)
